Assay results as given in patent US9545105B2, “1-(heterocyclic carbonyl) piperidines” (BAYER INTELLECTUAL PROPERTY GMBH, priority 2010, dated 2017).

Test system: not listed separately
Assay: log P by HPLC on reversed-phase column (C 18), EEC Directive 79/831 Annex V.A8
Type: physicochemical
Conditions: HPLC on reversed-phase column (C 18); 40° C.; 0.1% aqueous formic acid and acetonitrile; linear gradient 10% to 90% acetonitrile
How it was run: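 Reversed-phase C18 HPLC at 40° C with a linear 10% to 90% acetonitrile gradient against 0.1% aqueous formic acid. Log P is read from retention time by linear interpolation between successive unbranched alkan-2-ones (C3–C16) of known log P. UV spectra from 200 to 400 nm, taken at chromatographic peak maxima, give lambda-max.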

logP | Compound
3.99 | Cn1nc(C(F)F)c(C(=O)N2CCCCC2c2cccc(Oc3ccccc3)c2)c1F (stereo not shown) [Example 115]
2.56 | COc1cc(OC)cc(C2CCCCN2C(=O)c2c(C)nn(C)c2F)c1 (stereo not shown) [Example 68]
3.87 | Cn1nc(C(F)F)c(C(=O)N2CCCCC2c2ccc(Cl)cc2Cl)c1F (stereo not shown) [Example 81]
4.53 | CC(c1ccccc1Cl)C1CCCCN1C(=S)c1c(C(F)F)nn(C)c1F (stereo not shown) [Example 166]
3.06 | CCc1nn(C)c(F)c1C(=O)N1CCCCC1c1ccccc1C (stereo not shown) [Example 4]
3.25 | Cc1nn(C)c(F)c1C(=O)N1CCCCC1c1cccc(Cl)c1Cl (stereo not shown) [Example 73]
3.31 | CCc1nn(C)c(F)c1C(=O)N1CCCCC1c1cccc(Cl)c1 (stereo not shown) [Example 43]
3.21 | Cc1nn(C)c(F)c1C(=O)N1CCCCC1c1ccc2ccccc2c1 (stereo not shown) [Example 118]
2.89 | Cc1nn(C)c(F)c1C(=O)N1CCCCC1c1ccccc1Cl (stereo not shown) [Example 36]
3.58 | CCc1nn(C)c(F)c1C(=O)N1CCCCC1c1ccc2ccccc2c1 (stereo not shown) [Example 117]

Same assay, conditions: reversed-phase HPLC column (C 18); HPLC on reversed-phase column (C 18); 40° C.; 0.1% aqueous formic acid and acetonitrile; linear gradient 10% to 90% acetonitrile

chromatographic logP | Compound
2.71 | Cc1ccccc1C1CCCCN1C(=O)c1c(C)nn(C)c1F (stereo not shown) [Example 1, (5-fluoro-1,3-dimethyl-1H-pyrazol-4-yl)[2-(2-methylphenyl)-piperidin-1-yl]methanone]

Test system: Sphaerotheca fuliginea
Assay: In vivo preventive test on Sphaerotheca fuliginea (cucumber)
Conditions: 500 ppm of active ingredient, evaluated 7 days after inoculation
Experimental: Solvent: 49 parts by weight of N,N-dimethylformamide Emulsifier: 1 part by weight of Alkylarylpolyglycolether To produce a suitable preparation of active compound, 1 part by weight of active compound is mixed with the stated amounts of solvent and emulsifier, and the concentrate is diluted with water to the desired concentration. To test for preventive activity, young plants are sprayed with the preparation of active compound at the stated rate of application. One day after this treatment, the plants are inoculated with an aqueous spore suspension of Sphaerotheca fuliginea. Then the plants are placed in a greenhouse at approximately 23° C. and a relative atmospheric humidity of approximately 70%. The test is evaluated 7 days after the inoculation. 0% means an efficacy which corresponds to that of the untreated control, while an efficacy of 100% means that no disease is observed.

Compound | Efficacy
Cn1nc(C(F)F)c(C(=O)N2CCCCC2c2cccc(Oc3ccccc3)c2)c1F (stereo not shown) [Example 115] | 95%
COc1cc(OC)cc(C2CCCCN2C(=O)c2c(C)nn(C)c2F)c1 (stereo not shown) [Example 68] | 83%
Cc1ccccc1C1CCCCN1C(=O)c1c(C)nn(C)c1F (stereo not shown) [Example 1, (5-fluoro-1,3-dimethyl-1H-pyrazol-4-yl)[2-(2-methylphenyl)-piperidin-1-yl]methanone] | 95%
Cn1nc(C(F)F)c(C(=O)N2CCCCC2c2ccc(Cl)cc2Cl)c1F (stereo not shown) [Example 81] | 94%
CC(c1ccccc1Cl)C1CCCCN1C(=S)c1c(C(F)F)nn(C)c1F (stereo not shown) [Example 166] | 100%
CCc1nn(C)c(F)c1C(=O)N1CCCCC1c1ccccc1C (stereo not shown) [Example 4] | 95%
Cc1nn(C)c(F)c1C(=O)N1CCCCC1c1cccc(Cl)c1Cl (stereo not shown) [Example 73] | 85%
Cc1nn(C)c(F)c1C(=O)N1CCCCC1c1ccccc1Cl (stereo not shown) [Example 36] | 89%

Test system: Venturia inaequalis
Assay: In vivo preventive test on Venturia inaequalis (apple scab)
Conditions: 100 ppm of active ingredient, evaluated 10 days after inoculation
Experimental: (§1) Solvent: 24.5 parts by weight of acetone • 24.5 parts by weight of N,N-dimethylacetamide Emulsifier: 1 part by weight of alkylaryl polyglycol ether To produce a suitable preparation of active compound, 1 part by weight of active compound is mixed with the stated amounts of solvent and emulsifier, and the concentrate is diluted with water to the desired concentration. To test for preventive activity, young plants are sprayed with the preparation of active compound at the stated rate of application. After the spray coating has dried on, the plants are inoculated with an aqueous conidia suspension of the causal agent of apple scab (Venturia inaequalis) and then remain for 1 day in an incubation cabinet at approximately 20° C. and a relative atmospheric humidity of 100%. The plants are then placed in a greenhouse at approximately 21° C. and a relative atmospheric humidity of approximately 90%. The test is evaluated 10 days after the inoculation. 0% means an efficacy which corresponds to that of the untreated control, while an efficacy of 100% means that no disease is observed.

Compound | Efficacy
Cc1ccccc1C1CCCCN1C(=O)c1c(C)nn(C)c1F (stereo not shown) [Example 1, (5-fluoro-1,3-dimethyl-1H-pyrazol-4-yl)[2-(2-methylphenyl)-piperidin-1-yl]methanone] | 99%

Test system: Pyrenophora teres
Assay: In vivo preventive test on Pyrenophora teres (barley)
Conditions: 500 ppm of active ingredient, evaluated 7-9 days after inoculation
How it was run: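 Young barley plants sprayed with compound in DMF/alkylaryl polyglycol ether emulsion; inoculated with P. teres spores one day later. 48 h at 22 °C, 100% humidity, then greenhouse ~20 °C, ~80% humidity; efficacy scored 7-9 days post-inoculation, 0% = untreated, 100% = no disease.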

Compound | Efficacy
Cn1nc(C(F)F)c(C(=O)N2CCCCC2c2cccc(Oc3ccccc3)c2)c1F (stereo not shown) [Example 115] | 100%
COc1cc(OC)cc(C2CCCCN2C(=O)c2c(C)nn(C)c2F)c1 (stereo not shown) [Example 68] | 95%
Cc1ccccc1C1CCCCN1C(=O)c1c(C)nn(C)c1F (stereo not shown) [Example 1, (5-fluoro-1,3-dimethyl-1H-pyrazol-4-yl)[2-(2-methylphenyl)-piperidin-1-yl]methanone] | 100%
Cn1nc(C(F)F)c(C(=O)N2CCCCC2c2ccc(Cl)cc2Cl)c1F (stereo not shown) [Example 81] | 100%
CC(c1ccccc1Cl)C1CCCCN1C(=S)c1c(C(F)F)nn(C)c1F (stereo not shown) [Example 166] | 100%
CCc1nn(C)c(F)c1C(=O)N1CCCCC1c1ccccc1C (stereo not shown) [Example 4] | 100%
Cc1nn(C)c(F)c1C(=O)N1CCCCC1c1cccc(Cl)c1Cl (stereo not shown) [Example 73] | 100%
CCc1nn(C)c(F)c1C(=O)N1CCCCC1c1cccc(Cl)c1 (stereo not shown) [Example 43] | 100%
Cc1nn(C)c(F)c1C(=O)N1CCCCC1c1ccc2ccccc2c1 (stereo not shown) [Example 118] | 100%
Cc1nn(C)c(F)c1C(=O)N1CCCCC1c1ccccc1Cl (stereo not shown) [Example 36] | 100%
CCc1nn(C)c(F)c1C(=O)N1CCCCC1c1ccc2ccccc2c1 (stereo not shown) [Example 117] | 95%

Test system: Alternaria solani
Assay: In vivo preventive test on Alternaria solani (tomato)
Conditions: 500 ppm of active ingredient, evaluated 7 days after inoculation
Experimental: Solvent: 49 parts by weight of N,N-dimethylformamide Emulsifier: 1 part by weight of Alkylarylpolyglycolether To produce a suitable preparation of active compound, 1 part by weight of active compound is mixed with the stated amounts of solvent and emulsifier, and the concentrate is diluted with water to the desired concentration. To test for preventive activity, young plants are sprayed with the preparation of active compound at the stated rate of application. One day after this treatment, the plants are inoculated with an aqueous spore suspension of Alternaria solani. The plants remain for one day in an incubation cabinet at approximately 22° C. and a relative atmospheric humidity of 100%. Then the plants are placed in an incubation cabinet at approximately 20° C. and a relative atmospheric humidity of 96%. The test is evaluated 7 days after the inoculation. 0% means an efficacy which corresponds to that of the untreated control while an efficacy of 100% means that no disease is observed.

Compound | Efficacy
Cn1nc(C(F)F)c(C(=O)N2CCCCC2c2cccc(Oc3ccccc3)c2)c1F (stereo not shown) [Example 115] | 100%
COc1cc(OC)cc(C2CCCCN2C(=O)c2c(C)nn(C)c2F)c1 (stereo not shown) [Example 68] | 80%
Cc1ccccc1C1CCCCN1C(=O)c1c(C)nn(C)c1F (stereo not shown) [Example 1, (5-fluoro-1,3-dimethyl-1H-pyrazol-4-yl)[2-(2-methylphenyl)-piperidin-1-yl]methanone] | 95%
Cn1nc(C(F)F)c(C(=O)N2CCCCC2c2ccc(Cl)cc2Cl)c1F (stereo not shown) [Example 81] | 100%
CC(c1ccccc1Cl)C1CCCCN1C(=S)c1c(C(F)F)nn(C)c1F (stereo not shown) [Example 166] | 100%
CCc1nn(C)c(F)c1C(=O)N1CCCCC1c1ccccc1C (stereo not shown) [Example 4] | 95%
Cc1nn(C)c(F)c1C(=O)N1CCCCC1c1cccc(Cl)c1Cl (stereo not shown) [Example 73] | 95%
CCc1nn(C)c(F)c1C(=O)N1CCCCC1c1cccc(Cl)c1 (stereo not shown) [Example 43] | 95%
Cc1nn(C)c(F)c1C(=O)N1CCCCC1c1ccc2ccccc2c1 (stereo not shown) [Example 118] | 95%
Cc1nn(C)c(F)c1C(=O)N1CCCCC1c1ccccc1Cl (stereo not shown) [Example 36] | 95%
CCc1nn(C)c(F)c1C(=O)N1CCCCC1c1ccc2ccccc2c1 (stereo not shown) [Example 117] | 95%

Test system: Septoria tritici
Assay: In vivo preventive test on Septoria tritici (wheat)
Conditions: 500 ppm of active ingredient, evaluated 21 days after inoculation
Experimental: Solvent: 49 parts by weight of N,N-dimethylacetamide Emulsifier: 1 part by weight of alkylaryl polyglycol ether To produce a suitable preparation of active compound, 1 part by weight of active compound or active compound combination is mixed with the stated amounts of solvent and emulsifier, and the concentrate is diluted with water to the desired concentration. To test for preventive activity, young plants are sprayed with the preparation of active compound or active compound combination at the stated rate of application. After the spray coating has been dried, the plants are sprayed with a spore suspension of Septoria tritici. The plants remain for 48 hours in an incubation cabinet at approximately 20° C. and a relative atmospheric humidity of approximately 100% and afterwards for 60 hours at approximately 15° C. in a translucent incubation cabinet at a relative atmospheric humidity of approximately 100%. The plants are placed in the greenhouse at a temperature of approximately 15° C. and a relative atmospheric humidity of approximately 80%. The test is evaluated 21 days after the inoculation. 0% means an efficacy which corresponds to that of the untreated control, while an efficacy of 100% means that no disease is observed.

Compound | Efficacy
Cc1ccccc1C1CCCCN1C(=O)c1c(C)nn(C)c1F (stereo not shown) [Example 1, (5-fluoro-1,3-dimethyl-1H-pyrazol-4-yl)[2-(2-methylphenyl)-piperidin-1-yl]methanone] | 100%
CCc1nn(C)c(F)c1C(=O)N1CCCCC1c1ccccc1C (stereo not shown) [Example 4] | 100%
Cc1nn(C)c(F)c1C(=O)N1CCCCC1c1cccc(Cl)c1Cl (stereo not shown) [Example 73] | 80%
CCc1nn(C)c(F)c1C(=O)N1CCCCC1c1cccc(Cl)c1 (stereo not shown) [Example 43] | 80%
Cc1nn(C)c(F)c1C(=O)N1CCCCC1c1ccc2ccccc2c1 (stereo not shown) [Example 118] | 100%
Cc1nn(C)c(F)c1C(=O)N1CCCCC1c1ccccc1Cl (stereo not shown) [Example 36] | 80%
CCc1nn(C)c(F)c1C(=O)N1CCCCC1c1ccc2ccccc2c1 (stereo not shown) [Example 117] | 90%

Test system: Uromyces appendiculatus
Assay: In vivo preventive test on Uromyces appendiculatus (bean rust)
Conditions: 100 ppm of active ingredient, evaluated 10 days after inoculation
Experimental: as §1, with “spore” for “conidia”, “bean rust (Uromyces appendiculatus)” for “apple scab (Venturia inaequalis)”

Compound | Efficacy
Cc1ccccc1C1CCCCN1C(=O)c1c(C)nn(C)c1F (stereo not shown) [Example 1, (5-fluoro-1,3-dimethyl-1H-pyrazol-4-yl)[2-(2-methylphenyl)-piperidin-1-yl]methanone] | 100%

Test system: Blumeria graminis f. sp. hordei
Assay: In vivo preventive test on Blumeria graminis (barley)
Conditions: 500 ppm of active ingredient, evaluated 7 days after inoculation
Experimental: Solvent: 49 parts by weight of N,N-dimethylacetamide Emulsifier: 1 part by weight of alkylaryl polyglycol ether To produce a suitable preparation of active compound, 1 part by weight of active compound or active compound combination is mixed with the stated amounts of solvent and emulsifier, and the concentrate is diluted with water to the desired concentration. To test for preventive activity, young plants are sprayed with the preparation of active compound or active compound combination at the stated rate of application. After the spray coating has been dried, the plants are dusted with spores of Blumeria graminis f. sp. hordei. The plants are placed in the greenhouse at a temperature of approximately 18° C. and a relative atmospheric humidity of approximately 80% to promote the development of mildew pustules. The test is evaluated 7 days after the inoculation. 0% means an efficacy which corresponds to that of the untreated control, while an efficacy of 100% means that no disease is observed.

Compound | Efficacy
Cc1ccccc1C1CCCCN1C(=O)c1c(C)nn(C)c1F (stereo not shown) [Example 1, (5-fluoro-1,3-dimethyl-1H-pyrazol-4-yl)[2-(2-methylphenyl)-piperidin-1-yl]methanone] | 89%
CCc1nn(C)c(F)c1C(=O)N1CCCCC1c1ccccc1C (stereo not shown) [Example 4] | 78%
